In ChEMBL document CHEMBL5727253, “Tricyclic compounds and compositions as kinase inhibitors” (2019) one finds IC50 data, which are given here for 12 compounds.

“And” between values parts separate entries of the source, which are not always exact repeats. Equal values may be shown once.

Usually IC50 stands for the concentration needed to halve the response being measured.

This assay in a line: Biological Assays: The activity of a compound according to the present invention can be assessed by well-known in vitro & in vivo methods. […] CRAF cDNA was subcloned as full length protein, with Y340E and Y341E activating mutations, into a baculovirus expression vector for Sf9 insect cell expression. h14-3-3 zeta cDNA was subcloned into a baculovirus expression vector for SF9 insect cell expression. Sf9 cells co-expressing both proteins were lysed and subjected to immobilized nickel chromatography and eluted with Imidazole. A second column (StrepII binding column) was used and eluted with desthiobiotin. Protein Tags were removed using Prescission enzyme and the protein was further purified using a flowthrough step to remove tags.C-Raf TR refers to a truncated C-Raf protein, a Δ1-324 deletion mutant. C-Raf FL refers to the full-length C-Raf protein.Full length MEK1 with an inactivating K97R ATP binding site mutation is utilized as a RAF substrate. The MEK1 cDNA was subcloned with an N-terminal (his)6 tag into a vector for E. Coli expression. The MEK1 substrate was purified from E. Coli lysate by nickel affinity chromatography followed by anion exchange. The final MEK1 preparation was biotinylated (Pierce EZ-Link Sulfo-NHS-LC-Biotin) and concentrated.Assay Materials: Assay buffer is 50 mM Tris, pH 7.5, 15 mM MgCl2, 0.01% Bovine Serum Albumin (BSA) and 1 mM dithiothreitol (DTT); Stop buffer is 60 mM ethylenediaminetetraacetic acid (EDTA) and 0.01% Tween® 20; b-Raf (V600E), active; biotinylated Mek, kinase dead; Alpha Screen detection kit (available from PerkinElmer™, #6760617R); Anti phospho-MEK1/2 (available from Cell Signaling Technology, Inc. #9121); 384 well low volume assay plates (White Greiner® plates).Assay conditions: b-Raf (V600E) approximately 4 pM; c-Raf approximately 4 nM; biotinylated Mek, kinase dead approximately 10 nM; ATP 10 μM for BRAF (V600E) and 1 μM for CRAF; Pre-incubation time with compounds 60 minutes at room temperature; Reaction time 1 or 3 hours at room temperature.Assay protocol: Raf and biotinylated Mek (kinase dead) were combined at 2× final concentrations in assay buffer (50 mM Tris, pH 7.5, 15 mM MgCl2, 0.01% BSA and 1 mM DTT) and dispensed […] per well in assay plates (Greiner white 384 well assay plates #781207) containing […] of 40× of a Raf kinase inhibitor test compound diluted in 100% DMSO. The plate was incubated for 60 minutes at room temperature. The Raf kinase activity reaction was started by the addition of […] per well of 2×ATP diluted in assay buffer. After 3 hours (b-Raf(V600E)) or 1 hour (c-Raf). The reactions were stopped and the phosphorylated product was measured using a rabbit anti-p-MEK (Cell Signaling, #9121) antibody and the Alpha Screen IgG (ProteinA) detection Kit (PerkinElmer #6760617R), by the addition of […] to the well of a mixture of the antibody (1:2000 dilution) and detection beads (1:2000 dilution of both beads) in Stop/bead buffer (25 mM EDTA, 50 mM Tris, pH 7.5, 0.01% Tween20). The additions were carried out under dark conditions to protect the detection beads from light. A lid was placed on top of the plate and incubated for 1 hour at room temperature, after which the luminescence was read on a PerkinElmer Envision instrument. In kind it is biochemical.
Take `CC[C@H]1Cc2nnc(-c3cc(NC(=O)c4ccnc(C(C)(F)F)c4)ccc3C)cc2N2CCOC[C@H]12`: the IC50 stood at 0.2 nM.
Turning to `CC[C@H]1Cc2nnc(-c3cc(NC(=O)c4ccnc(C(C)(F)F)c4)ccc3C)cc2N2CCOC[C@@H]12`, the IC50 was 0.1 nM.
Take `CC[C@@H]1Cc2nnc(-c3cc(NC(=O)c4ccnc(C(C)(F)F)c4)ccc3C)cc2N2CCOC[C@H]12`: the IC50 was 0.1 nM.
Under `Cc1ccc(NC(=O)c2ccnc(C(C)(F)F)c2)cc1-c1ccc2c(c1)N1CCOC[C@H]1[C@@](C)(N)C2` stands 0.61 nM.
Turning to `Cc1ncc(NC(=O)c2cccc(C(F)(F)F)c2)cc1-c1cnc2c(c1)N1CCOC[C@H]1[C@](F)(CO)C2`, the IC50 was 1.1 nM.
As to `CNC(=O)C1Cc2ccc(-c3cc(NC(=O)c4ccnc(C(F)(F)F)c4)ccc3C)cc2N2CCOC[C@@H]12` (some centres not stated), the IC50 was 0.032 nM and 0.027 nM.
On to `Cc1ccc(NC(=O)c2ccnc(C(C)(F)F)c2)cc1-c1ccc2c(c1)N1CCOC[C@@H]1[C@](C)(N)C2`, for which the IC50 came to 0.025 nM.
On to `CNC(=O)C1Cc2ccc(-c3cc(NC(=O)c4ccnc(C(F)(F)F)c4)ccc3C)cc2N2CCOC[C@H]12` (some centres not stated), for which the concentration for half-maximal inhibition (IC50) was 0.028 nM and 0.014 nM.
Under `CNC(=O)[C@@H]1Cc2ccc(-c3cc(NC(=O)c4ccnc(C(F)(F)F)c4)ccc3C)cc2N2CCOC[C@H]12` stands 0.13 nM; under `Cc1ccc(NC(=O)c2ccnc(C(F)(F)F)c2)cc1-c1cnc2c(c1)N1CCOCC1[C@H](CO)C2` (mixture of isomers), 0.005 nM.
As to `Cc1ccc(NC(=O)c2ccnc(C(F)(F)F)c2)cc1-c1cnc2c(c1)N1CCOCC1C(CS(C)(=O)=O)C2` (racemic), the IC50 is 0.038 nM.
As to `Cc1ncc(NC(=O)c2cccc(C(F)(F)F)c2)cc1-c1ccc2c(c1)N1CCOCC1CC2O` (racemic), the IC50 was found to be 0.01 nM.
